Test results as given in PMC3298469, “A selective and potent CXCR3 antagonist SCH 546738 attenuates the development of autoimmune diseases and delays graft rejection” (BMC Immunology, 2012).
Where two headings read alike, the source gives them in different places.

Columns and labels:
CXCR3 = biological target: T1, CXCR3 (Homo sapiens, UniProt P49682); assay: [125I]hCXCL11 competition binding (SPA, Ba/F3 membranes); design: expressed in transfected cells; host or cells: mouse pro-B Ba/F3 cells (vector pME18Sneo), membrane preparation
T1 sequence (P49682 1-368): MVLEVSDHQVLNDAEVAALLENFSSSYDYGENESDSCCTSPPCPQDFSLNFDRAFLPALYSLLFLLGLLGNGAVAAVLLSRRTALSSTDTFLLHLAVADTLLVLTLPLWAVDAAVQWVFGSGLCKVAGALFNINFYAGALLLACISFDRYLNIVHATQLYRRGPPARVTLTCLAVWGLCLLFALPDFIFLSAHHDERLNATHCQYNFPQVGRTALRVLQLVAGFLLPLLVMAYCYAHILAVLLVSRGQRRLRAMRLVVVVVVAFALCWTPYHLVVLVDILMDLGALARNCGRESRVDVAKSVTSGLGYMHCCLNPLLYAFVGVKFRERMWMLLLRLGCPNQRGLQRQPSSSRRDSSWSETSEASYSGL
Description: The cDNAs encoding human, mouse and rat CXCR3 were generated based on the published sequences: human (NM_001504), mouse (NM_009910), rat (NM_053415). The cDNAs for monkey and dog CXCR3 were cloned in the lab. All CXCR3 cDNAs were cloned into the mammalian expression vector pME18Sneo, a derivative of the SRα expression vector as described previously. IL-3-dependent mouse pro-B cells Ba/F3 were transfected to express CXCR3 of different species and cell membranes were prepared as described previously.
A scintillation proximity assay was used for radioligand competition binding assays as described previously with some modifications. For each assay point, 1 µg of membrane was preincubated for 1 hr with 300 µg wheat germ agglutinin (WGA) coated SPA beads (GE Healthcare Life Sciences) in the binding buffer (50 mM HEPES, 1 mM CaCl2, 5 mM MgCl2, 125 mM NaCl, 0.002% NaN3, 1.0% BSA) at room temperature. The beads were spun down, resuspended in the binding buffer and transferred to a 96-well Isoplate (Wallac, Gaithersburg, MD). The indicated concentrations of ^125I-hCXCL10, ^125I-hCXCL11 or ^35S-SCH 535390 with a series of titrations of SCH 546738 were added to start the reaction. After indicated reaction times at room temperature, the amount of radioactivity bound to the SPA beads was determined with a Wallac 1450 Microbeta counter (Wallac).
The ability of SCH 546738 to compete the binding of [^125I]hCXCL10 and [^125I]hCXCL11 to human CXCR3 receptor was determined using various concentrations of [^125I]hCXCL10 and [^125I]hCXCL11 as described in Methods. After 3 hr reaction, specific counts relative to input counts (B/B0) in the presence of increasing concentrations of SCH 546738 are plotted.

Neurokinin NK1 = Neurokinin NK1 (Homo sapiens, UniProt P25103); assay: GPCR counterscreen binding assay
Chain of Neurokinin NK1 (P25103 whole entry): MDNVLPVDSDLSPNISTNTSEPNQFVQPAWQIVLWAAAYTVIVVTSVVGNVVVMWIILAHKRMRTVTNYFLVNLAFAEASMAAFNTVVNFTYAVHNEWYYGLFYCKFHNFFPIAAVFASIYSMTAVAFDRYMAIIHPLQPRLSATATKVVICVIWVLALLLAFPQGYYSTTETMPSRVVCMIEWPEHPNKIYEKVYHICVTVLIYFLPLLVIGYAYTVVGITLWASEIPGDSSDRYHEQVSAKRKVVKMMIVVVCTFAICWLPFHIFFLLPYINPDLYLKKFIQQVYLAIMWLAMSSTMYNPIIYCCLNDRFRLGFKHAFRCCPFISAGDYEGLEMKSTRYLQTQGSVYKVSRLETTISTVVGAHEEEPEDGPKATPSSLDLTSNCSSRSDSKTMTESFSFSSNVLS
Description: (§1) SCH 546738 was tested at concentrations of 1-10 μM against a panel of 49 GPCR binding assays. Most of the assays were not affected by SCH 546738 (Table 2). […] In addition, SCH 546738 has a favourable pharmacokinetic profile in rodents. […] Therefore, SCH 546738 is suitable for in vivo preclinical studies.

Purinergic P2Y1 = Purinergic P2Y1 (Homo sapiens, UniProt P47900); assay: GPCR counterscreen binding assay
Chain of Purinergic P2Y1 (P47900 whole entry): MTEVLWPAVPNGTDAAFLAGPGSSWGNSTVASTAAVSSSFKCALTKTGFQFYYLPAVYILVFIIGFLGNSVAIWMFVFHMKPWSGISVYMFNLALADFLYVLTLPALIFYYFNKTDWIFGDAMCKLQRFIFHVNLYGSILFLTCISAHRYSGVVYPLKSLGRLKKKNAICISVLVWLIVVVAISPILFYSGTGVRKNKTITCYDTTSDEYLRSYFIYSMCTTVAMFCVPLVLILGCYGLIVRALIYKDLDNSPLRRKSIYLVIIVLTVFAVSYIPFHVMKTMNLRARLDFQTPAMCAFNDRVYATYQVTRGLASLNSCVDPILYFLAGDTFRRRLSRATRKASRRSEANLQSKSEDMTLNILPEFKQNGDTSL
Description: as §1

CCR1 = CCR1 (Homo sapiens, UniProt P32246); assay: GPCR counterscreen binding assay
Chain of CCR1 (P32246 whole entry): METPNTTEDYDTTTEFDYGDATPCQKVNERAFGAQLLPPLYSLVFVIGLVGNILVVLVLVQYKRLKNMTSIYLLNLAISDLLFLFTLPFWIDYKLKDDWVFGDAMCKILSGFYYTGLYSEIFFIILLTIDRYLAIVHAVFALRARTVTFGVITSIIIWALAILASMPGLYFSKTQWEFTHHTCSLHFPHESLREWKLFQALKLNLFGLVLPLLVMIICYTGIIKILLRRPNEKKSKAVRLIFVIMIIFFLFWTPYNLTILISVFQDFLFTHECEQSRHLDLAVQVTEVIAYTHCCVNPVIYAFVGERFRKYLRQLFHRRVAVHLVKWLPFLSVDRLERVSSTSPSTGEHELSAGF
Description: as §1

MCHR1 = MCHR1 (Homo sapiens, UniProt Q99705); assay: GPCR counterscreen binding assay
Chain of MCHR1 (Q99705 whole entry): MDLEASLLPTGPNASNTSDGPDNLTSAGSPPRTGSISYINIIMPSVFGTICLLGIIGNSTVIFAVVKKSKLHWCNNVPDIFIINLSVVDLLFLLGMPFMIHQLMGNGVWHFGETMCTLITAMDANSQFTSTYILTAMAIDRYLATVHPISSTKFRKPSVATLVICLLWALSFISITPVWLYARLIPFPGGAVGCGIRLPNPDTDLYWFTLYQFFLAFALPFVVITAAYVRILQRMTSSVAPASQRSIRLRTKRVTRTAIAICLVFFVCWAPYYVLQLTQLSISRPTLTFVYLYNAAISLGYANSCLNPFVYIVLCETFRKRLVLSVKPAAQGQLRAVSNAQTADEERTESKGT
Description: as §1

Dopamine D3 = Dopamine D3 (Homo sapiens, UniProt P35462); assay: GPCR counterscreen binding assay
Chain of Dopamine D3 (P35462 whole entry): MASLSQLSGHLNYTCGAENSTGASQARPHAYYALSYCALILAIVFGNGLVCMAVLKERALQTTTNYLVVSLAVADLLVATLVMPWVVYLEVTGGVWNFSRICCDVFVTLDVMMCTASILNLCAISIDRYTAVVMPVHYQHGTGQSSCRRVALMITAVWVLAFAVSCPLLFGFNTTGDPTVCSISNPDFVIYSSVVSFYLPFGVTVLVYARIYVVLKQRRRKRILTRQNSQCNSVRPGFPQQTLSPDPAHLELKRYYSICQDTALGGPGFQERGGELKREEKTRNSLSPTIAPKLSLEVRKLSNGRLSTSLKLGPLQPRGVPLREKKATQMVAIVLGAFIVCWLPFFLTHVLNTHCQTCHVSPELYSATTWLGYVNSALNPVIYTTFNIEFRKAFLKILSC
Description: as §1

CCR5 = CCR5 (Homo sapiens, UniProt P51681); assay: GPCR counterscreen binding assay
Chain of CCR5 (P51681 whole entry): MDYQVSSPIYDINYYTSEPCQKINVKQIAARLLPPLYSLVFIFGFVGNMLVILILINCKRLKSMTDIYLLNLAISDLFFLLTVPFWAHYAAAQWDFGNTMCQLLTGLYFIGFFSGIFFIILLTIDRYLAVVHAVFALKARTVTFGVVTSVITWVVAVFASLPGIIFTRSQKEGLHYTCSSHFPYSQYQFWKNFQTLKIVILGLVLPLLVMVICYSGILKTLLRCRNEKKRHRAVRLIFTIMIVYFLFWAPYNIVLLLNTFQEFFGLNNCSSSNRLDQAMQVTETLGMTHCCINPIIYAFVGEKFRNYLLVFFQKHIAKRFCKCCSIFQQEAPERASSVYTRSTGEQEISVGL
Description: as §1

Muscarinic M5 = Muscarinic M5 (Homo sapiens, UniProt P08912); assay: GPCR counterscreen binding assay
Chain of Muscarinic M5 (P08912 whole entry): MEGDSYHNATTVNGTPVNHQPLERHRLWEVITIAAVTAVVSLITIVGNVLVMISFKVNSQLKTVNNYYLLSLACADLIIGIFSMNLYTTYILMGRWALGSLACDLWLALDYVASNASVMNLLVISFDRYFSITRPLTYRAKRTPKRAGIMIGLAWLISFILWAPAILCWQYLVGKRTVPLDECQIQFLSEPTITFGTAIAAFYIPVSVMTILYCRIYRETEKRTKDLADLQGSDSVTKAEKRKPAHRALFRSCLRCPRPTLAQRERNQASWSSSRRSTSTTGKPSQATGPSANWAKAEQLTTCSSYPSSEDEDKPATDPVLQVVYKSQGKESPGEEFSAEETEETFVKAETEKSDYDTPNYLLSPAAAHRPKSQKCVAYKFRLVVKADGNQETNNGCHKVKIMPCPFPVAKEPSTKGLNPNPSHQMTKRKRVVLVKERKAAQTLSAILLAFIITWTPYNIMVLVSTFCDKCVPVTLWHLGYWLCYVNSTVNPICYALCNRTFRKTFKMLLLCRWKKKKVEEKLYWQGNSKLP
Description: as §1

## CC[C@H]1CN(c2nc(N)c(C(N)=O)nc2Cl)CCN1C1CCN(Cc2ccc(Cl)cc2)CC1 [SCH 546738]
CXCR3; [125I-hI-TAC] 12.5 pM, 3 hr reaction, read-out: IC50
  IC50: 2 nM
CXCR3; [125I-hI-TAC] 50 pM, 3 hr reaction, read-out: IC50
  IC50: 1.8 nM
CXCR3; [125I-hI-TAC] 250 pM, 3 hr reaction, read-out: IC50
  IC50: 2.2 nM
CXCR3; [125I]hCXCL11 12.5-250 pM, read-out: IC50 (constant, independent of input concentration)
  IC50: ~2 nM
Neurokinin NK1
  inhibition at 2 µM: 15%
Purinergic P2Y1
  inhibition at 4 µM: 16%
CCR1
  inhibition at 10 µM: 9%
MCHR1
  inhibition at 10 µM: 0%
Dopamine D3
  inhibition at 10 µM: 18%
CCR5
  inhibition at 10 µM: 10%
Muscarinic M5
  inhibition at 4 µM: 28%
